Measurements as given in patent US11578055B2, “Triazacyclododecansulfonamide (“TCD”)-based protein secretion inhibitors” (KEZAR LIFE SCIENCES, priority 2018, dated 2023).
Read-outs that look alike come from different tables or passages of the source.

What was measured:
[1] = system: full length TNFα (amino acids 1-233) fused to Gaussia Luciferase; assay: Dox Induced TNFα-FL-Gluc Assay; assay type: cell-based; details: 24 hr, read-out: 24 hr Dox Inducible TNFaFLGluc 293FRT/TO: Mean IC50
Method in brief: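 Stable Flp-In 293 T-REx line expressing doxycycline-inducible full-length TNFα fused to Gaussia luciferase; cells plated the day before, then treated with compound dilutions in doxycycline-containing medium at 37° C, 5% CO2. Unspecified stereocentres mean stereoisomer mixtures were tested.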

[2] = system: full length IL-2 (amino acids 1-153) fused to Gaussia Luciferase; assay: Dox Induced IL2-FL-Gluc Assay; assay type: cell-based; details: 24 hr, read-out: 24 hr Dox Inducible IL2FLGluc 293FRT/TO: Mean IC50
Method in brief: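 Flp-In 293 T-REx stable line expressing full-length IL-2 (aa 1-153) with C-terminal Gaussia luciferase fusion under doxycycline-inducible control. Cells plated the day before; compound dilutions added in DMSO/media containing doxycycline, incubated at 37° C, 5% CO2.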

[3] = system: multiple myeloma cell line NCl-H929; assay: H929 Cell Viability Assay; assay type: cell-based, human; details: Homo sapiens, NCI-H929, 48 h
Method in brief: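 NCI-H929 myeloma cells in RPMI 1640 with 10% FBS were treated with compound dilutions for 48 h at 37 °C, and viability was then read by CellTiter-Glo luminescence. Compounds drawn without stereochemistry were tested as stereoisomer mixtures.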

[4] = system: multiple myeloma cell line U266B1; assay: U266 Cell Viability Assay; assay type: cell-based, human; details: Homo sapiens, U-266, 48 hr
Method in brief: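 U266B1 myeloma cells in RPMI 1640 with 10% FBS were treated with compound dilutions for 48 h at 37° C, 5% CO2. Viability was read as CellTiter-Glo luminescence. Data for structures drawn without stereochemistry refer to stereoisomer mixtures.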

[5] = In Vitro Microsome Stability Assay (monkey); assay type: in vitro ADME
Method in brief: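 Test article, added from a 0.25 mM DMSO stock, was incubated with liver microsomes (20 mg/mL stock) in 0.1 M potassium phosphate at 37° C, with the reaction started by NADPH. Samples were quenched with acetonitrile containing internal standard at 0 and 30 min and analysed by LC-MS/MS. Values are % remaining at 30 min versus 0 min, using IS-normalised AUC ratios.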

[6] = system: HER3 signal sequence plus 4 amino acids fused to Gaussia Luciferase (HER3-ss+4aa/Gaussia Luciferase); assay: Dox Induced HER3-ss-Gluc Assay; assay type: cell-based; details: 24 hr, doxycycline induced, Flp-In 293 T-REx cells; read-out: 24 hr Dox Inducible Her3(ss + 4) Gluc 293FRT/TO: Mean 1050
Method in brief: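 Stable Flp-In 293 T-REx line expressing HER3 signal sequence+4aa/Gaussia luciferase under doxycycline-inducible control. Cells plated the day before; compound dilutions added in doxycycline-containing medium and incubated at 37° C, 5% CO2.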

[7] = monkey liver microsomes, 30 min w/ NADPH

Row | SMILES | IC50 ([1]; 293FRT/TO) [nM] | IC50 ([2]; 293FRT/TO) [nM] | EC50 ([3]; H929, read-out: 48 hr H929 Viability Celltiter-Glo: Mean EC50) [nM] | EC50 ([4]; U266, read-out: 48 hr U266 Viability Celltiter-Glo: Mean EC50) [nM] | Liver Microsome Stability-% Left after 30 min w/ NADPH (%) Monkey ([5]; monkey, 30 min, NADPH) [%] | IC50 ([1]; Dox inducible, 293FRT/TO cells) [nM] | IC50 ([2]; Dox inducible, 293FRT/TO cells) [nM] | IC50 [6] [nM] | EC50 ([3]; H929, Celltiter-Glo) [nM] | EC50 ([4]; U266, Celltiter-Glo) [nM] | Liver Microsome Stability-% Left after 30 min w/ NADPH (%) Monkey [5, 7] [%]
1 | C[C@H]1CN(S(=O)(=O)c2ccc(N(C)C)cc2)CCCN(CC2CCCCC2)CCCN(S(=O)(=O)N2CCc3cc(Cl)ccc3C2)C1 [A87] | 492 | 50.2 | 224 | > 25000 | 32.7 |  |  |  |  |  | 
2 | COc1cc(F)ccc1N1CCN(S(=O)(=O)N2CCCN(CC3CCCCC3)CCCN(S(=O)(=O)c3ccc(N(C)C)cc3)C[C@H](C)C2)CC1 [A137] |  |  |  |  |  | 191 | 21.4 | 10.8 | 282 | > 25000 | 14.2
3 | C[C@H]1CN(S(=O)(=O)c2ccc(N(C)C)cc2)CCCN(CC2CCCCC2)CCCN(S(=O)(=O)N2CCc3c(C#N)cccc3C2)C1 [A151, 2-{[(3S)-9-(cyclohexylmethyl)-5-[4-(dimethylamino)benzenesulfonyl]-3-methyl-1,5,9-triazacyclododecan-1-yl]sulfonyl}-1,2,3,4-tetrahydroisoquinoline-5-carbonitrile] |  |  |  |  |  | 1220 | 306 | 276 | 2710 | > 25000 | 3.98
4 | COc1cc(F)ccc1N1CCN(S(=O)(=O)N2CCCN(CC3CCCCC3)CCCN(S(=O)(=O)c3ccc(N(C)C)cc3)C[C@H](C)C2)C[C@H]1C [A177, 4-{[(3S)-9-(cyclohexylmethyl)-5-{[(3 R)-4-(4-fluoro-2-methoxyphenyl)-3-methylpiperazin-1-yl]sulfonyl}-3-methyl-1,5,9-triazacyclododecan-1-yl]sulfonyl}-N,N-dimethylaniline] |  |  |  |  |  | 155 | 12.6 | 10.9 | 180 | > 25000 | 2.8
